Reference: patent US20220024945A1, “THERAPEUTIC COMPOUNDS AND COMPOSITIONS, AND METHODS OF USE THEREOF” (Genentech, Inc., priority 2017, published 2022)
Where two headings read alike, the source gives them in different places.

Assays:
[1] = target: isolated recombinant JAK1 kinase domain (Homo sapiens, UniProt P23458); assay: JAK enzyme assay (Caliper LabChip), JAK1 kinase domain; type: biochemical; conditions: ATP 25 μM; 1.5 nM JAK1; Morrison tight binding model
[2] = system: JAK1-dependent STAT6 phosphorylation downstream of IL-13 stimulation, BEAS-2B cells; assay: JAK1 pathway assay in cell lines: P-STAT6 in BEAS-2B cells + IL13; type: cell-based; conditions: BEAS-2B human bronchial epithelial cells, 1 hr compound preincubation, read-out: P-STAT6 BEAS2B + IL13 IC50
Experimental: JAK1 Pathway Assay in Cell Lines was Carried Out as Follows:
Inhibitor potency (EC50) was determined in cell-based assays designed to measure JAK1 dependent STAT phosphorylation. As noted above, inhibition of IL-4, IL-13, and IL-9 signaling by blocking the Jak/Stat signaling pathway can alleviate asthmatic symptoms in pre-clinical lung inflammation models (Mathew et al., 2001, J Exp Med 193(9): 1087-1096; Kudlacz et. al., 2008, Eur J. Pharmacol 582(1-3): 154-161).
In one assay approach, TF-1 human erythroleukemia cells obtained from the American Type Culture Collection (ATCC; Manassas, Va.) were used to measure JAK1-dependent STAT6 phosphorylation downstream of IL-13 stimulation. Prior to use in the assays, TF-1 cells were starved of GM-CSF overnight in OptiMEM medium (Life Technologies, Grand Island, N.Y.) supplemented with 0.5% charcoal/dextran stripped fetal bovine serum (FBS), 0.1 mM non-essential amino acids (NEAA), and 1 mM sodium pyruvate. The assays were run in 384-well plates in serum-free OptiMEM medium using 300,000 cells per well. In a second assay approach, BEAS-2B human bronchial epithelial cells obtained from ATCC were plated at 100,000 cells per well of a 96-well plate one day prior to the experiment. The BEAS-2B assay was run in complete growth medium (bronchial epithelial basal medium plus bulletkit; Lonza; Basel, Switzerland).
Test compounds were serially diluted 1:2 in DMSO and then diluted 1:50 in medium just before use. Diluted compounds were added to the cells, for a final DMSO concentration of 0.2%, and incubated for 30 m (for the TF-1 assay) or 1 hr (for the BEAS-2B assay) at 37° C. Then, cells were stimulated with human recombinant cytokine at their respective EC90 concentrations, as previously determined for each individual lot. Cells were stimulated with […] (R&D Systems, Minneapolis, Minn.) for 15 m/at 37° C. The TF-1 cell reactions were stopped by the direct addition of 10× lysis buffer (Cell Signaling Technologies, Danvers, Mass.), whereas the BEAS-2B cell incubations were halted by the removal of medium and addition of 1× lysis buffer. The resultant samples were frozen in the plates at −80° C. Compound mediated inhibition of STAT6 phosphorylation was measured in the cell lysates using MesoScale Discovery (MSD) technology (Gaithersburg, Md.). EC50 values were determined as the concentration of compound required for 50% inhibition of STAT phosphorylation relative to that measured for the DMSO control.

[3] = target: isolated recombinant JAK2 kinase domain (Homo sapiens, UniProt O60674); assay: JAK enzyme assay (Caliper LabChip), JAK2 kinase domain; conditions: ATP 25 μM, 0.2 nM JAK2, Morrison tight binding model
Sequence of isolated recombinant JAK2 kinase domain (O60674 849-1124 limits assumed): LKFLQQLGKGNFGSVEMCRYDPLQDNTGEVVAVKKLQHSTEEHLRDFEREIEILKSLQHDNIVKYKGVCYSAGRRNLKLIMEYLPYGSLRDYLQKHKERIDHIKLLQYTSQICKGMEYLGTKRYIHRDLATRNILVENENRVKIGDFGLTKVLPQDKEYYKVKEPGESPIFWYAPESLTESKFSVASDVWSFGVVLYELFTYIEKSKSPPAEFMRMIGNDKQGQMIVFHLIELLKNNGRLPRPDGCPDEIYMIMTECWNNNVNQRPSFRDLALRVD
Experimental: JAK Enzyme Assays were Carried Out as Follows:
The activity of the isolated recombinant JAK1 and JAK2 kinase domain was measured by monitoring phosphorylation of a peptide derived from JAK3 ([sequence] fluorescently labeled on the N-terminus with 5-carboxyfluorescein) using the Caliper LabChip® technology (Caliper Life Sciences, Hopkinton, Mass.). […] Reactions were incubated at 22° C. in 384-well polypropylene microtiter plates for 30 minutes and then stopped by addition of 25 μL of an EDTA containing solution (100 mM HEPES buffer (pH 7.2), 0.015% Brij-35, 150 mM EDTA), resulting in a final EDTA concentration of 50 mM. After termination of the kinase reaction, the proportion of phosphorylated product was determined as a fraction of total peptide substrate using the Caliper LabChip® 3000 according to the manufacturer's specifications.

Sequence of isolated recombinant JAK1 kinase domain (P23458 875-1153 limits assumed): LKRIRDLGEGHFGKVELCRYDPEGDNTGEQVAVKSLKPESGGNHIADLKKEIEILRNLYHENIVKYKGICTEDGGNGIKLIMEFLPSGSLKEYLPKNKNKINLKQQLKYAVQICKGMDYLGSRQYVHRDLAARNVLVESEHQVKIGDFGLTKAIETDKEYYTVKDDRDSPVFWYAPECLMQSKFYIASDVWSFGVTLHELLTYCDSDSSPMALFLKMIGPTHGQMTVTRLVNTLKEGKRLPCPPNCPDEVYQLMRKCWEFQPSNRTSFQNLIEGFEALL

| SMILES | Ki [1] | IC50 [2] | Ki [3] | IC50 ([2]; Homo sapiens, BEAS-2B, 1 h) |
| --- | --- | --- | --- | --- |
| O=C(Nc1cn(C2CN(C3CC(O)C3)C2)nc1-c1cc(SC2COC2)ccc1OC(F)F)c1cnn2cccnc12 (single isomer, unassigned) [Example 40, N-[3-[2-(difluoromethoxy)-5-(oxetan-3-ylsulfanyl)phenyl]-1-[1-(3-hydroxycyclobutyl)azetidin-3-yl]pyrazol-4-yl]pyrazolo[1,5-a]pyrimidine-3-carboxamide] | 1.18 nM | 45 nM | 1.02 nM | – |
| CN(C)C(=O)Cn1cc(NC(=O)c2cnn3cccnc23)c(-c2cc(SCC(F)(F)F)ccc2OC(F)F)n1 [Example 47, N-(3-(2-(difluoromethoxy)-5-((2,2,2-trifluoroethyl)thio)phenyl)-1-(2-(dimethylamino)-2-oxoethyl)-1H-pyrazol-4-yl)pyrazolo[1,5-a]pyrimidine-3-carboxamide] | 0.18 nM | – | 0.78 nM | 15 nM |
| O=C(Nc1cn(Cc2cn(C3CCN([C@H]4CCOC4)CC3)nn2)nc1-c1cc(SC2COC2)ccc1OC(F)F)c1cnn2cccnc12 (stereo in doubt) [Example 20, N-[3-[2-(difluoromethoxy)-5-(oxetan-3-ylsulfanyl)phenyl]-1-[[1-[1-[rac-(3S)-tetrahydrofuran-3-yl]-4-piperidyl]triazol-4-yl]methyl]pyrazol-4-yl]pyrazolo[1,5-a]pyrimidine-3-carboxamide; formic acid] | 0.66 nM | – | 0.44 nM | 67 nM |
| CC[C@H](O)Cn1cc(NC(=O)c2cnn3cccnc23)c(-c2cc(SC)ccc2OC(F)F)n1 (racemic) [Example 41, N-[3-[2-(difluoromethoxy)-5-methylsulfanyl-phenyl]-1-[rac-(2S)-2-hydroxybutyl]pyrazol-4-yl]pyrazolo[1,5-a]pyrimidine-3-carboxamide] | 0.35 nM | – | 0.25 nM | 13 nM |
| O=C(Nc1c[nH]nc1-c1cc(SC2CCOCC2)ccc1OC(F)F)c1cnn2cccnc12 [Example 1, N-[3-[2-(difluoromethoxy)-5-tetrahydropyran-4-ylsulfanyl-phenyl]-1H-pyrazol-4-yl]pyrazolo[1,5-a]pyrimidine-3-carboxamide] | 0.4 nM | – | 0.15 nM | 11 nM |
| CSc1ccc(OC(F)F)c(-c2nn(CC(C)(C)O)cc2NC(=O)c2cnn3cccnc23)c1 [Example 19, N-[3-[2-(difluoromethoxy)-5-methylsulfanyl-phenyl]-1-(2-hydroxy-2-methyl-propyl)pyrazol-4-yl]pyrazolo[1,5-a]pyrimidine-3-carboxamide] | 0.36 nM | – | 0.48 nM | 15 nM |
| CSc1ccc(OC(F)F)c(-c2nn(CC(=O)N(C)C)cc2NC(=O)c2cnn3cccnc23)c1 [Example 44] | 0.17 nM | – | 0.24 nM | 10 nM |
| O=C(Nc1c[nH]nc1-c1cc(SC2CCCC2)ccc1OC(F)F)c1cnn2cccnc12 [Example 7, N-[3-[5-cyclopentylsulfanyl-2-(difluoromethoxy)phenyl]-1H-pyrazol-4-yl]pyrazolo[1,5-a]pyrimidine-3-carboxamide] | 0.76 nM | – | 0.37 nM | 12 nM |
| CN(C)C(=O)Cn1cc(NC(=O)c2cnn3cccnc23)c(-c2cc(S(C)(=O)=O)ccc2OC(F)F)n1 [Example 49, N-(3-(2-(difluoromethoxy)-5-(methylsulfonyl)phenyl)-1-(2-(dimethylamino)-2-oxoethyl)-1H-pyrazol-4-yl)pyrazolo[1,5-a]pyrimidine-3-carboxamide] | 0.45 nM | – | 0.79 nM | 214 nM |
| COC(=O)CSc1ccc(OC(F)F)c(-c2n[nH]cc2NC(=O)c2cnn3cccnc23)c1 [Example 43, methyl 2-[4-(difluoromethoxy)-3-[4-(pyrazolo[1,5-a]pyrimidine-3-carbonylamino)-1H-pyrazol-3-yl]phenyl]sulfanylacetate] | 0.32 nM | – | 0.15 nM | 37 nM |
| O=C(Nc1cn(Cc2cn(C3CCN([C@@H]4CCOC4)CC3)nn2)nc1-c1cc(SC2CC2)ccc1OC(F)F)c1cnn2cccnc12 (stereo in doubt) [Example 14, N-[3-[5-cyclopropylsulfanyl-2-(difluoromethoxy)phenyl]-1-[[1-[1-[rac-(3R)-tetrahydrofuran-3-yl]-4-piperidyl]triazol-4-yl]methyl]pyrazol-4-yl]pyrazolo[1,5-a]pyrimidine-3-carboxamide] | 0.4 nM | – | 0.29 nM | 13 nM |
| CC(C)Sc1ccc(OC(F)F)c(-c2nn(CCO)cc2NC(=O)c2cnn3cccnc23)c1 [Example 10, N-[3-[2-(difluoromethoxy)-5-isopropylsulfanyl-phenyl]-1-(2-hydroxyethyl)pyrazol-4-yl]pyrazolo[1,5-a]pyrimidine-3-carboxamide] | 0.58 nM | – | 0.24 nM | 17 nM |
| CC(C)Sc1ccc(OC(F)F)c(-c2nn(Cc3cn(C4CCN([C@@H]5CCOC5)CC4)nn3)cc2NC(=O)c2cnn3cccnc23)c1 (stereo in doubt) [Example 12, N-[3-[2-(difluoromethoxy)-5-isopropylsulfanyl-phenyl]-1-[[1-[1-[rac-(3R)-tetrahydrofuran-3-yl]-4-piperidyl]triazol-4-yl]methyl]pyrazol-4-yl]pyrazolo[1,5-a]pyrimidine-3-carboxamide; formic acid] | 0.64 nM | – | 0.46 nM | 22 nM |
| O=C(Nc1cn(Cc2cn(C3CCN(C4COC4)CC3)nn2)nc1-c1cc(SC2COC2)ccc1OC(F)F)c1cnn2cccnc12 [Example 17, N-[3-[2-(difluoromethoxy)-5-(oxetan-3-ylsulfanyl)phenyl]-1-[[1-[1-(oxetan-3-yl)-4-piperidyl]triazol-4-yl]methyl]pyrazol-4-yl]pyrazolo[1,5-a]pyrimidine-3-carboxamide] | 0.81 nM | – | 0.57 nM | 130 nM |
| O=C(Nc1cn(CC(=O)N2CCCCC2)nc1-c1cc(SC2COC2)ccc1OC(F)F)c1cnn2cccnc12 [Example 28, N-[3-[2-(difluoromethoxy)-5-(oxetan-3-ylsulfanyl)phenyl]-1-[2-oxo-2-(1-piperidyl)ethyl]pyrazol-4-yl]pyrazolo[1,5-a]pyrimidine-3-carboxamide] | 0.41 nM | – | 0.96 nM | 24 nM |
| CSc1ccc(OC(F)F)c(-c2nn(C3CCOCC3)cc2NC(=O)c2cnn3cccnc23)c1 [Example 16, N-[3-[2-(difluoromethoxy)-5-methylsulfanyl-phenyl]-1-tetrahydropyran-4-yl-pyrazol-4-yl]pyrazolo[1,5-a]pyrimidine-3-carboxamide] | – | – | 0.91 nM | 31 nM |
| Cn1cc(NC(=O)c2cnn3cccnc23)c(-c2cc(SC3COC3)ccc2OC(F)F)n1 [Example 15, N-[3-[2-(difluoromethoxy)-5-(oxetan-3-ylsulfanyl)phenyl]-1-methyl-pyrazol-4-yl]pyrazolo[1,5-a]pyrimidine-3-carboxamide] | – | – | 0.13 nM | 14 nM |
| O=C(Nc1c[nH]nc1-c1cc(SC2CCOC2)ccc1OC(F)F)c1cnn2cccnc12 (centres unmarked) [Example 8, N-[3-[2-(difluoromethoxy)-5-tetrahydrofuran-3-ylsulfanyl-phenyl]-1H-pyrazol-4-yl]pyrazolo[1,5-a]pyrimidine-3-carboxamide] | 0.45 nM | – | – | 19 nM |
| CN1CCCC(Sc2ccc(OC(F)F)c(-c3n[nH]cc3NC(=O)c3cnn4cccnc34)c2)C1 (single isomer, unassigned) [Example 31, N-[3-[2-(difluoromethoxy)-5-[(1-methyl-3-piperidyl)sulfanyl]phenyl]-1H-pyrazol-4-yl]pyrazolo[1,5-a]pyrimidine-3-carboxamide] | 9.73 nM | – | 3.47 nM | – |
